The values that follow come from ChEMBL document CHEMBL1141486, “Synthesis and biological evaluation of novel 1,3,5-triazine derivatives as antimicrobial agents” (Bioorg Med Chem Lett, 2008).

Each structure is given as a SMILES string. Activity calls are given as the source filed them. The rule behind the calls is not given here.

Data set [1] can be described thus: Hemolytic activity in red blood cells. It is filed as ADME, cell-based, Erythrocyte. To be noted: read-out: HD50 (the source's name).
Another data set relates to Staphylococcus aureus. The experiment in a line: Antibacterial activity against multi-drug resistant Staphylococcus aureus ATCC BAA44 by microdilution method. It is filed as functional, organism-based.
For the next data set, the system named is Bacillus anthracis. The experiment in a line: Antibacterial activity against Bacillus anthracis by microdilution method. It is filed as functional, organism-based.
Data set [2] in a line: Hemolytic activity in red blood cells at 100 uM. The data set is classed as ADME, cell-based, Erythrocyte. To be noted: read-out: Activity.
The test system of another data set is Escherichia coli. The experiment in a line: Antibacterial activity against ampicillin and streptomycin-resistant Escherichia coli D31 by microdilution method. The data set is classed as functional, organism-based.
Another data set deals with Bacillus subtilis. Description: Antibacterial activity against Bacillus subtilis […] by microdilution method. The data set is classed as functional, organism-based.
In the next data set the test system is Acinetobacter baumannii. Description: Antibacterial activity against Acinetobacter baumannii ATCC BAA747 by microdilution method. It is filed as functional, organism-based.
A short description of data set [3]: Effect on disruption of membrane integrity using […]-2-oleoyl-sn-glycero-3-[phospho-rac-(1-glycerol)] lipid vesicle at 70 uM by calcein dye leakage assay. It is filed as functional.
A short description of data set [4]: Effect on disruption of membrane integrity using […]-2-oleoyl-sn-glycero-3-[phospho-rac-(1-glycerol)] lipid vesicle at 50 uM by calcein dye leakage assay. The data set is classed as functional.
Data set [5] in a line: Effect on disruption of membrane integrity using […]-2-oleoyl-sn-glycero-3-[phospho-rac-(1-glycerol)] lipid vesicle at 90 uM by calcein dye leakage assay. The data set is classed as functional.

As for `CCCCN(CCCC)CCCNc1nc(NC2CCCCCC2)nc(NC23CC4CC(CC(C4)C2)C3)n1`, in [1], the HC50 was more than 3.5 mM. The IC50 with Staphylococcus aureus is 68 µM; in the data set on Bacillus anthracis it was 41 µM; in the data set on Escherichia coli, 620 µM; with Bacillus subtilis, 2.5 µM; in the data set on Acinetobacter baumannii it was 53 µM. For the same compound, in data set [2], the hemolysis at 100 µM was less than 10%.
Take `CCCCN(CCCC)CCCNc1nc(NC2CCCCCCCCCCC2)nc(NC23CC4CC(CC(C4)C2)C3)n1`: in the data set with Bacillus subtilis, it took 15.9 µM to reach half-maximal inhibition (IC50).
`CN1CCCC1CCNc1nc(NC2CCCCCC2)nc(NC23CC4CC(CC(C4)C2)C3)n1` (centres undefined) had an IC50 in the data set on Bacillus subtilis of 5.9 µM.
For `CCN(CC)CCCNc1nc(NC2CCCCCC2)nc(NC23CC4CC(CC(C4)C2)C3)n1`, in [2], the hemolysis at 100 µM is less than 10%.
Still for that read-out and setting: then `CCCCN(CCCC)CCCNc1nc(NCCCN(CC)CC)nc(NC23CC4CC(CC(C4)C2)C3)n1`, with less than 10%; and `CCCCN(CCCC)CCCNc1nc(NCCCN(CCCC)CCCC)nc(NC23CC4CC(CC(C4)C2)C3)n1`, with less than 10%.
In turn, `CCCCN(CCCC)CCCNc1nc(NC2CC2)nc(NC23CC4CC(CC(C4)C2)C3)n1` showed an IC50 in the data set with Bacillus subtilis of 16.4 µM.
In turn, `CCCCN(CCCC)CCCNc1nc(NC23CC4CC(CC(C4)C2)C3)nc(N(CCCC)CCCC)n1` returned an IC50 in the data set on Bacillus subtilis of 4.4 µM.
On to `CCN(CC)CCNc1nc(NC2CCCCCC2)nc(NC23CC4CC(CC(C4)C2)C3)n1`, for which half-maximal inhibition in the data set on Bacillus subtilis (IC50) required 5.6 µM.
With `CCN(CC)CCCNc1nc(NCCc2ccc(OC)cc2)nc(NC23CC4CC(CC(C4)C2)C3)n1`, in [2], the hemolysis at 100 µM is less than 10%.
As to `CCCCN(CCCC)CCCNc1nc(NC2CC3CCC2C3)nc(NC23CC4CC(CC(C4)C2)C3)n1` (centres undefined), the IC50 with Bacillus subtilis worked out at 7.6 µM.
As for `CC1(C)S[C@@H]2[C@H](NC(=O)[C@H](N)c3ccccc3)C(=O)N2[C@H]1C(=O)O`, in data set [3], the outcome was inactive.
With `CCCCN(CCCC)CCCNc1nc(NCCCN2CCCC(C)C2)nc(NC23CC4CC(CC(C4)C2)C3)n1` (centres undefined), in data set [2], the hemolysis at 100 µM was less than 10%.
On to `NCCCNc1nc(NC2CCCCCC2)nc(NC23CC4CC(CC(C4)C2)C3)n1`, for which it took 4.7 µM to reach half-maximal inhibition with Bacillus subtilis (IC50).
For `CCN(CC)CCCNc1nc(NCCc2ccccc2)nc(NC23CC4CC(CC(C4)C2)C3)n1`, in data set [1], the HC50 is more than 3.5 mM. Also, the IC50 with Staphylococcus aureus came out at 17 µM; in the data set with Bacillus anthracis it was 21 µM; in the data set on Escherichia coli it was 200 µM; in the data set with Bacillus subtilis, 2.7 µM; in the data set with Acinetobacter baumannii, 22 µM. Also, the Activity in data set [4] was 100%.
As for `CCCCN(CCCC)CCCNc1nc(NC2CCCCCCC2)nc(NC23CC4CC(CC(C4)C2)C3)n1`, the HC50 in data set [1] was more than 3.5 mM. Moreover, the IC50 with Staphylococcus aureus was 70 µM; in the data set on Bacillus anthracis, 86 µM; in the data set on Escherichia coli, 550 µM; in the data set on Bacillus subtilis it was 2 µM; in the data set with Acinetobacter baumannii, 84 µM.
In turn, `NCCNc1nc(NC2CCCCCC2)nc(NC23CC4CC(CC(C4)C2)C3)n1` had an IC50 with Bacillus subtilis of 5.9 µM.
For the compound `CCCCN(CCCC)CCCNc1nc(NCCc2ccc(OC)cc2)nc(NC23CC4CC(CC(C4)C2)C3)n1`, the hemolysis at 100 µM in data set [2] was less than 10%.
In turn, `CCCCN(CCCC)CCCNc1nc(NC2CCC2)nc(NC23CC4CC(CC(C4)C2)C3)n1` came in with an IC50 in the data set on Bacillus subtilis of 7.9 µM.
In the case of `CCCCN(CCCC)CCCNc1nc(NCC2CCCCC2)nc(NC23CC4CC(CC(C4)C2)C3)n1`, in the data set with Bacillus subtilis, the IC50 came out at 5.5 µM.
Same read-out and setting: then `CN(C)CCNc1nc(NC2CCCCCC2)nc(NC23CC4CC(CC(C4)C2)C3)n1`, with 7 µM.
Compound `CCN(CC)CCCNc1nc(NCc2ccccc2)nc(NC23CC4CC(CC(C4)C2)C3)n1` had an IC50 in the data set on Bacillus subtilis of 10.6 µM.
In the data set with Bacillus subtilis, `CN(C)CCCNc1nc(NC2CCCCCC2)nc(NC23CC4CC(CC(C4)C2)C3)n1` had a half-inhibitory concentration (IC50) of 5.7 µM.
In the data set with Bacillus subtilis, `CCCCN(CCCC)CCCNc1nc(NC2CCCC2)nc(NC23CC4CC(CC(C4)C2)C3)n1` displayed an IC50 of 4.6 µM.
Turning to `CCN(CC)CCCNc1nc(NCc2ccc3c(c2)OCO3)nc(NC23CC4CC(CC(C4)C2)C3)n1`, the IC50 with Bacillus subtilis was found to be 3.5 µM.
In the data set on Bacillus subtilis, `CCCCN(CCCC)CCCNc1nc(NC23CC4CC(CC(C4)C2)C3)nc(N(CCC)CC2CC2)n1` gave an IC50 of 5 µM.
Turning to `CCCCN(CCCC)CCCNc1nc(NC2CCCCC2)nc(NC23CC4CC(CC(C4)C2)C3)n1`, the hemolysis at 100 µM in data set [2] was less than 10%.
Turning to `CN(C)c1nc(NC2CCCCCC2)nc(NC23CC4CC(CC(C4)C2)C3)n1`, the result in data set [5] was inactive. This compound also came in with an IC50 with Bacillus subtilis of more than 40 µM.
As for `C[N+](C)(C)CCNc1nc(NC2CCCCCC2)nc(NC23CC4CC(CC(C4)C2)C3)n1`, in the data set with Bacillus subtilis, it took 5.3 µM to reach half-maximal inhibition (IC50).
In the data set on Bacillus subtilis, `CCN(CC)CCCNc1nc(NCCCc2ccccc2)nc(NC23CC4CC(CC(C4)C2)C3)n1` yielded an IC50 of 3.7 µM.
In turn, `CCCCN(CCCC)CCCNc1nc(NC23CC4CC(CC(C4)C2)C3)nc(NC23CC4CC(CC(C4)C2)C3)n1` returned an IC50 in the data set with Bacillus subtilis of 39 µM.
